Measured values: patent US6953786B2, “Compositions comprising plant-derived polyphenolic compounds and inhibitors of reactive oxygen species and methods of using thereof” (The Regents of the University of California, priority 2002, dated 2005)
Entries after “also recorded” stand apart in the source; their conditions may differ.

Columns and labels:
BSp73AS cells = test: Oligonucleosomal DNA fragmentation (agarose gel); assay type: cell-based, rat; details: 6 hours, 100 μM, no serum
Procedure: To confirm the apoptosis in vivo results, the effects of quercetin, rutin, and trans-resveratrol in other apoptosis assays in Mia PACA-2 cells and BSp73AS cells in culture were conducted. BSp73AS cells are derived from a rat pancreatic carcinoma and both Mia PACA-2 and BSp73AS cells have mutated p53 and express K-ras. Human pancreatic carcinoma cell line Mia PACA-2 and rat pancreatic carcinoma BSp73AS were cultured in Dulbecco's Modified Eagle's Medium supplemented with 10% heat inactivated FBS, penicillin G (100 U/ml) and streptomycin ([…]) in a humidified atmosphere comprising 5% (v/v) CO2. When cells were 90% confluent they were detached, washed with alternating centrifugation and resuspension, plated and incubated in the same media without FBS and with the indicated concentrations of polyphenolic compounds or vehicle for up to 96 hours. Oligonucleotide DNA fragmentation, annexin staining, and PARP proteolysis assays were conducted as follows: BSp73AS pancreatic cancer cells were cultured for 6 hours in the presence or absence of 100 μM of rutin, quercetin, or trans-resveratrol. DNA was isolated as described by Gukovskaya AS, et al. (1997) Clin Invest 100: 1853-1862, which is herein incorporated by reference. […]

Mia PACA-2 cells = test: Annexin staining (flow cytometry); assay type: cell-based, human; details: Mia PACA-2, 72 hours, 0-100 μM, no serum
Procedure: BSp73AS cells are derived from a rat pancreatic carcinoma and both Mia PACA-2 and BSp73AS cells have mutated p53 and express K-ras. Human pancreatic carcinoma cell line Mia PACA-2 and rat pancreatic carcinoma BSp73AS were cultured in Dulbecco's Modified Eagle's Medium supplemented with 10% heat inactivated FBS, penicillin G (100 U/ml) and streptomycin ([…]) in a humidified atmosphere comprising 5% (v/v) CO2. When cells were 90% confluent they were detached, washed with alternating centrifugation and resuspension, plated and incubated in the same media without FBS and with the indicated concentrations of polyphenolic compounds or vehicle for up to 96 hours. Oligonucleotide DNA fragmentation, annexin staining, and PARP proteolysis assays were conducted as follows:
Mia PACA-2 cells were cultured for 72 hours in the presence of 0, 12, 24, 50, and 100 μM rutin, quercetin, or trans-resveratrol. About 1×10^6 cells as determined with a hemocytometer were analyzed for annexin-V binding using an Annexin V-FLUOS Staining Kit (Boehringer Mannheim, Germany). […] Cells were analyzed on a FACScan flow cytometer (Becton Dickinson Immunocytometry System, San Jose, Calif.) equipped with a […] air-cooled 488 nm argon-ion laser. […]

Akt/PKB = Akt/PKB phosphorylation (Western blot); assay type: cell-based, human; details: Mia PACA-2, 72 hours, with serum; genistein 100 μM, LY294002 50 μM
Procedure: To determine whether phosphatidylinositol 3-kinase (PI 3-kinase) and Akt/PKB mediate the effects of serum on NF-κB activation and that the effects of polyphenolic compounds on NF-κB activation are due to an ability to inhibit PI 3-kinase, the following assays were conducted. Specifically, to determine the effects of serum, LY294002, a PI 3-kinase inhibitor, and genistein on Akt/PKB phosphorylation, Mia PACA-2 cells were cultured for 72 hours in the absence or presence of serum with or without 100 μM genistein (GN) or 50 μM LY294002. Western blots were performed on whole cell lysates as described above except that specific antibodies against phosphorylated and total Akt/PKB were used (Akt/PKB is Anti-pS473 AktpAB from Promega, Madison Wis. and total Akt is Akt ½ from Santa Cruz, Santa Cruz, Calif.). The membranes were then stripped and re-probed with an antibody against total Akt .

Mia PACA-2 = test: TUNEL apoptosis assay in primary tumors and normal tissues; assay type: in vivo, nude mouse
Procedure: In order to determine the mechanism of the suppressive effects of quercetin on the growth of the pancreatic cancer, apoptosis in the primary tumors using the TUNEL assay was conducted. See Gukovskaya AS, et al. (1997) Clin Invest 100:1853-1862; Gukovskaya AS, et al. (1996) Gastroenterology 110:875-884; and Sandoval D, et al. (1996) Gastroenterology 111:1081-1091, which are herein incorporated by reference. Specifically, 3 μm tissue section were deparaffinized and rehydrated through a graded series of ethanol and redistilled water. Tissue sections were refixed in 4% paraformaldehyde for 15 minutes at room temperature and then incubated with proteinase K (20 μg/ml in 10 mM Tirs/HCL, pH 7.4-8.0) for 15 minutes at 37° C. DNA breaks were then labeled with terminal deoxytransferase (TdT) and biotinylated deoxyUTP. Staining without TdT enzyme or the biotinylated substrate were used as negative controls. For positive controls, slides were treated with DNase I. Measurements were made by light microscpy observations and values calculated as the percentage of cells positively stained as a percentage of the total number of cells.

How did the “oligonucleosomal DNA fragmentation” value (BSp73AS cells) turn out when Oc1ccc(/C=C/c2cc(O)cc(O)c2)cc1 [trans-resveratrol] was run?
The value was “caused an increase”.

And the “annexin staining (apoptosis)” value (Mia PACA-2 cells)?
The value was “increase annexin staining”.

O=c1c(-c2ccc(O)cc2)coc2cc(O)cc(O)c12 [genistein] was tested. Which “serum-induced Akt/PKB phosphorylation/activation” value (Akt/PKB) did it give?
Its value is “attenuated serum-induced Akt phosphorylation/activation”.

Which Percentage of apoptosis (Mia PACA-2; TUNEL in primary tumors of quercetin-treated nude mice, means ± SE, n=8) does the source give for O=c1c(O)c(-c2ccc(O)c(O)c2)oc2cc(O)cc(O)c12 [quercetin] here?
Its Percentage of apoptosis is 7.10 ± 1.00 %.

And the “apoptosis in normal tissues detected by the TUNEL assay” value (Mia PACA-2; quercetin-treated nude mice, data not shown)?
Its value is “no increase in apoptosis”.

And the “oligonucleosomal DNA fragmentation” value (BSp73AS cells)?
Its value is “caused an increase”.

What about the “annexin staining (apoptosis)” value (Mia PACA-2 cells) of the same compound?
The value was “increase annexin staining; also recorded: more potent in causing apoptosis than trans-resveratrol”.
